Reference: ChEMBL document CHEMBL1142325, “Discovery of a novel series of biphenyl benzoic acid derivatives as potent and selective human beta3-adrenergic receptor agonists with good oral bioavailability. Part I” (J Med Chem, 2008)

Tests used:
[1] = AUC (0 to 24 hrs) in dog at […], po by cassette assay; format: ADME, organism-based, Canis lupus familiaris; parameters: time < 24 hr, route oral; conditions: plasma
[2] = in vivo; conditions: dog, iv, 1 mg/mL
[3] = Bioavailability in dog at […], po by cassette assay; format: ADME, organism-based, Canis lupus familiaris; conditions: in vivo
[4] = Cmax in dog at […], po by cassette assay; format: ADME, organism-based, Canis lupus familiaris; parameters: route oral; conditions: in vivo
[5] = in vivo; conditions: dog, iv, 1 mg/mL; remark: listed apart in the source
[6] = in vitro; conditions: PAMPA, pH 6.5
[7] = Oral bioavailability in dog; format: ADME, organism-based, Canis lupus familiaris; conditions: in vivo
[8] = Oral bioavailability in monkey; format: ADME, organism-based, Macaca mulatta; conditions: rhesus monkey, in vivo
[9] = in vivo; conditions: dog, plasma, po, 1 mg/mL
[10] = in vivo; conditions: dog, po, 1 mg/mL
[11] = in vivo; conditions: dog, po, 1 mg/mL; remark: listed apart in the source
[12] = Bioavailability in rat at 0.32 mg/kg, po by cassette assay; format: ADME, organism-based; conditions: in vivo
[13] = Terminal half life in dog at 0.1 mg/kg, iv by cassette assay; format: ADME, organism-based, Canis lupus familiaris; parameters: dose 0.1 mg/kg, route intravenous; conditions: in vivo, read-out: beta t1/2 (converted)
[14] = Intrinsic clearance in human liver microsome; format: ADME; conditions: liver microsomes
[15] = AUC (0 to 24 hrs) in rat at 0.32 mg/kg, po by cassette assay; format: ADME, organism-based; parameters: time < 24 hr, dose 0.32 mg/kg, route oral; conditions: plasma
[16] = Intrinsic clearance in dog liver microsome; format: ADME, Canis lupus familiaris; conditions: liver microsomes
[17] = (§1) AUC (0 to 24 hrs) in monkey at 0.32 mg/kg, po by cassette assay; format: ADME, organism-based, Macaca mulatta, Plasma; parameters: time < 24 hr, dose 0.32 mg/kg, route oral; conditions: rhesus monkey, plasma
[18] = Cmax in monkey at 0.32 mg/kg, po by cassette assay; format: ADME, organism-based, Macaca mulatta; parameters: dose 0.32 mg/kg, route oral; conditions: rhesus monkey, in vivo
[19] = Terminal half life in rat at 0.32 mg/kg, iv by cassette assay; format: ADME, organism-based; parameters: dose 0.32 mg/kg, route intravenous; conditions: in vivo, read-out: beta t1/2 (converted)
[20] = Cmax in dog at 0.1 mg/kg, po by cassette assay; format: ADME, organism-based, Canis lupus familiaris; parameters: dose 0.1 mg/kg, route oral; conditions: in vivo
[21] = Bioavailability in dog at 0.1 mg/kg, po by cassette assay; format: ADME, organism-based, Canis lupus familiaris; conditions: in vivo
[22] = (§2) Bioavailability in monkey at 0.32 mg/kg, po by cassette assay; format: ADME, organism-based, Macaca mulatta; conditions: rhesus monkey, in vivo
[23] = AUC (0 to 24 hrs) in dog at 0.1 mg/kg, po by cassette assay; format: ADME, organism-based, Canis lupus familiaris; parameters: time < 24 hr, dose 0.1 mg/kg, route oral; conditions: plasma
[24] = Cmax in rat at 0.32 mg/kg, po by cassette assay; format: ADME, organism-based; parameters: dose 0.32 mg/kg, route oral; conditions: in vivo
[25] = Total clearance in dog at 0.1 mg/kg, iv by cassette assay; format: ADME, organism-based, Canis lupus familiaris; parameters: dose 0.1 mg/kg, route intravenous; conditions: in vivo
[26] = Total clearance in rat at 0.32 mg/kg, iv by cassette assay; format: ADME, organism-based; parameters: dose 0.32 mg/kg, route intravenous; conditions: in vivo
[27] = Terminal half life in monkey at 0.32 mg/kg, iv by cassette assay; format: ADME, organism-based, Macaca mulatta; parameters: dose 0.32 mg/kg, route intravenous; conditions: rhesus monkey, in vivo, read-out: beta t1/2 (converted)
[28] = Total clearance in monkey at 0.32 mg/kg, iv by cassette assay; format: ADME, organism-based, Macaca mulatta; parameters: dose 0.32 mg/kg, route intravenous; conditions: rhesus monkey, in vivo
[29] = AUC (0 to 24 hrs) in dog at 2.0 mg/kg, po by cassette assay; format: ADME, organism-based, Canis lupus familiaris; parameters: time < 24 hr, dose 2 mg/kg, route oral; conditions: plasma
[30] = Cmax in dog at 2.0 mg/kg, po by cassette assay; format: ADME, organism-based, Canis lupus familiaris; parameters: dose 2 mg/kg, route oral; conditions: in vivo
[31] = tested on: Rhesus monkey; assay: as §1; format: ADME, organism-based, Macaca mulatta, Plasma; parameters: time < 24 hr, dose 0.32 mg/kg, route oral; conditions: in vivo, 24 h
[32] = Intrinsic clearance in monkey liver microsome; format: ADME, Macaca mulatta; conditions: rhesus monkey, liver microsomes
[33] = tested on: Rhesus monkey; assay: as §2; format: ADME, organism-based, Macaca mulatta; conditions: in vivo
[34] = Terminal half life in monkey at 0.186 mg/kg, iv by cassette assay; format: ADME, organism-based, Macaca mulatta; parameters: dose 0.186 mg/kg, route intravenous; conditions: rhesus monkey, in vivo, read-out: beta t1/2 (converted)
[35] = Bioavailability in dog at 0.2 mg/kg, po by cassette assay; format: ADME, organism-based, Canis lupus familiaris; conditions: in vivo
[36] = Cmax in rat at 1.0 mg/kg, po by cassette assay; format: ADME, organism-based; parameters: dose 1 mg/kg, route oral; conditions: in vivo
[37] = Cmax […] at 1.0 mg/kg, po by cassette assay; format: ADME, organism-based; parameters: dose 1 mg/kg, route oral; conditions: in vivo
[38] = Total clearance in rat at 0.83 mg/kg, iv by cassette assay; format: ADME, organism-based; parameters: dose 0.83 mg/kg, route intravenous; conditions: in vivo
[39] = Bioavailability in monkey at 1.0 mg/kg, po by cassette assay; format: ADME, organism-based, Macaca mulatta; conditions: rhesus monkey, in vivo
[40] = AUC (0 to 24 hrs) in dog at 3.2 mg/kg, po by cassette assay; format: ADME, organism-based, Canis lupus familiaris; parameters: time < 24 hr, dose 3.2 mg/kg, route oral; conditions: plasma
[41] = Total clearance in monkey at 0.83 mg/kg, iv by cassette assay; format: ADME, organism-based, Macaca mulatta; parameters: dose 0.83 mg/kg, route intravenous; conditions: rhesus monkey, in vivo
[42] = AUC (0 to 24 hrs) […] at 1.0 mg/kg, po by cassette assay; format: ADME, organism-based; parameters: time < 24 hr, dose 1 mg/kg, route oral; conditions: plasma
[43] = AUC (0 to 24 hrs) in monkey at 1.0 mg/kg, po by cassette assay; format: ADME, organism-based, Macaca mulatta; parameters: time < 24 hr, dose 1 mg/kg, route oral; conditions: rhesus monkey, plasma
[44] = Cmax in dog at 3.2 mg/kg, po by cassette assay; format: ADME, organism-based, Canis lupus familiaris; parameters: dose 3.2 mg/kg, route oral; conditions: in vivo
[45] = Terminal half life in dog at 0.83 mg/kg, iv by cassette assay; format: ADME, organism-based, Canis lupus familiaris; parameters: dose 0.83 mg/kg, route intravenous; conditions: in vivo, read-out: beta t1/2 (converted)
[46] = Bioavailability in rat at 1.0 mg/kg, po by cassette assay; format: ADME, organism-based; conditions: in vivo
[47] = Terminal half life in monkey at 0.83 mg/kg, iv by cassette assay; format: ADME, organism-based, Macaca mulatta; parameters: dose 0.83 mg/kg, route intravenous; conditions: rhesus monkey, in vivo, read-out: beta t1/2 (converted)
[48] = Total clearance in dog at 0.83 mg/kg, iv by cassette assay; format: ADME, organism-based, Canis lupus familiaris; parameters: dose 0.83 mg/kg, route intravenous; conditions: in vivo
[49] = Intrinsic clearance in rat liver microsome; format: ADME; conditions: liver microsomes
[50] = Cmax in monkey at 1.0 mg/kg, po by cassette assay; format: ADME, organism-based, Macaca mulatta; parameters: dose 1 mg/kg, route oral; conditions: rhesus monkey, in vivo
[51] = Bioavailability in dog at 3.2 mg/kg, po by cassette assay; format: ADME, organism-based, Canis lupus familiaris; conditions: in vivo
[52] = AUC (0 to 24 hrs) in rat at 1.0 mg/kg, po by cassette assay; format: ADME, organism-based; parameters: time < 24 hr, dose 1 mg/kg, route oral; conditions: plasma
[53] = Terminal half life in rat at 0.83 mg/kg, iv by cassette assay; format: ADME, organism-based; parameters: dose 0.83 mg/kg, route intravenous; conditions: in vivo, read-out: beta t1/2 (converted)

O=C(O)c1ccc(-c2ccc(CCNC[C@H](O)c3cccc(Cl)c3)cc2)cc1
AUC(0-t) at 24 h [1]: 1980 ng·h/mL | half-life [2]: 12.3 h | bioavailability [3]: > 95% | Cmax [4]: 111 ng/mL | clearance [5]: 4 mL/min/kg

CC(C)Cc1cc(-c2ccc(CCNC[C@H](O)c3ccccc3)cc2)ccc1C(=O)O
Papp [6]: 26 ×10⁻⁶ cm/s

O=C(O)c1ccc(-c2ccc(CCNC[C@H](O)c3ccccc3)cc2)cc1OC1CCCCC1
Papp [6]: > 30 ×10⁻⁶ cm/s

O=C(O)c1ccc(-c2ccc(CCNC[C@H](O)c3cccc(Cl)c3)cc2)cc1OC1CCCCC1
Papp [6]: > 30 ×10⁻⁶ cm/s

O=S(=O)(Nc1ccc(CCNC[C@H](O)c2cccnc2)cc1)c1ccc(-c2nc(-c3ccc(C(F)(F)F)cc3)cs2)cc1
bioavailability [7]: 27% | bioavailability [8]: 4%

O=C(O)c1ccc(Oc2ccc(CCNC[C@H](O)c3cccc(Cl)c3)cc2)cc1
half-life [2]: 6.2 h | AUC(0-t) at 24 h [9]: 2470 ng·h/mL | Cmax [10]: 236 ng/mL | clearance [5]: 4.1 mL/min/kg | bioavailability [11]: 40%

CC(C)Sc1cc(-c2ccc(CCNC[C@H](O)c3ccccc3)cc2)ccc1C(=O)O
Papp [6]: 10 ×10⁻⁶ cm/s

CC(C)Oc1cc(-c2ccc(CCNC[C@H](O)c3cccc(Cl)c3)cc2)ccc1C(=O)O
bioavailability [12]: 61% | half-life [13]: 9.9 h | CLint scaled [14]: < 1 mL/min/kg | AUC(0-t) at 24 h [15]: 700 ng·h/mL | CLint scaled [16]: < 1 mL/min/kg | AUC(0-t) at 24 h [17]: 4980 ng·h/mL | Cmax [18]: 171 ng/mL | half-life [19]: 4.8 h | Cmax [20]: 13 ng/mL | bioavailability [21]: 45% | bioavailability [22]: 83% | AUC(0-t) at 24 h [23]: 149 ng·h/mL | Cmax [24]: 146 ng/mL | clearance [25]: 4.9 mL/min/kg | clearance [26]: 4.4 mL/min/kg | half-life [27]: 18.6 h | clearance [28]: 0.9 mL/min/kg | Papp [6]: > 30 ×10⁻⁶ cm/s

CC(C)Oc1cc(-c2ccc(CCNC[C@H](O)c3ccccc3)cc2)ccc1C(=O)O
bioavailability [12]: 80% | half-life [13]: 14.5 h | AUC(0-t) at 24 h [29]: 438 ng·h/mL | CLint scaled [14]: < 1 mL/min/kg | Cmax [30]: 25 ng/mL | AUC(0-t) at 24 h [15]: 565 ng·h/mL | AUC [31]: 209 ng·h/mL | Cmax [18]: 185 ng/mL | half-life [19]: 9.5 h | CLint scaled [32]: < 1 mL/min/kg | F [33]: 62% | Cmax [24]: 94.7 ng/mL | clearance [25]: 4.8 mL/min/kg | clearance [26]: 7.5 mL/min/kg | half-life [34]: 22.2 h | Papp [6]: 18 ×10⁻⁶ cm/s | bioavailability [35]: 68%

COc1cc(-c2ccc(CCNC[C@H](O)c3cccc(Cl)c3)cc2)ccc1C(=O)O
Papp [6]: 3.3 ×10⁻⁶ cm/s

O=C(O)c1cccc(-c2cccc(NCCNC[C@H](O)c3cccc(Cl)c3)c2)c1 [SOLABEGRON]
bioavailability [8]: 46%

CCOC(=O)COc1ccc2c(c1)C[C@@H](NC[C@H](O)c1cccc(Cl)c1)CCC2
Cmax [36]: 38 ng/mL | Cmax [37]: 1340 ng/mL | CLint scaled [14]: 18.2 mL/min/kg | clearance [38]: 47.9 mL/min/kg | CLint scaled [16]: 35.4 mL/min/kg | bioavailability [39]: 35% | AUC(0-t) at 24 h [40]: 10600 ng·h/mL | clearance [41]: 11.8 mL/min/kg | AUC(0-t) at 24 h [42]: 4100 ng·h/mL | AUC(0-t) at 24 h [43]: 398 ng·h/mL | Cmax [44]: 2070 ng/mL | half-life [45]: 1.63 h | bioavailability [46]: 29% | half-life [47]: 2.28 h | clearance [48]: 3.7 mL/min/kg | CLint scaled [49]: 35.4 mL/min/kg | Cmax [50]: 184 ng/mL | bioavailability [51]: 73% | AUC(0-t) at 24 h [52]: 83 ng·h/mL | half-life [53]: 0.3 h
